Measurements as given in the supplement of paper PMC10307832.

What was measured:
Assay in all cases: relative viability (nuclei count vs DMSO), 5 days (fraction); higher = more cells survive
[1] = compound: N=C1NC(=O)/C(=C/c2ccc(O)cc2)S1 [Mirin] + Cc1nc(NC(=O)N2CCC[C@H]2C(N)=O)sc1-c1ccnc(C(C)(C)C(F)(F)F)c1 [Alpelisib] (partner 2 µM)
Summary of the method: (§1)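 Relative viability is defined as nuclei in treated wells over nuclei in vehicle wells. Duplicate plates were run and medians reported. Lung cancer cell lines in 1536-well plates were dosed by pin tool one day after seeding, with one drug or with a fixed anchor-drug dose plus five library-drug doses (not always all listed) in √10 steps, and nuclei were counted after 5 days.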

[2] = compound: N=C1NC(=O)/C(=C/c2ccc(O)cc2)S1 [Mirin] + COc1cccc2cc(-c3nc([C@H]4CC[C@H](C(=O)O)CC4)n4ncnc(N)c34)[nH]c12 [OSI-027] (partner 0.5 µM)
Summary of the method: as §1

[3] = compound: N=C1NC(=O)/C(=C/c2ccc(O)cc2)S1 [Mirin] + C[C@@H](Oc1cc(-c2cnn(C3CCNCC3)c2)cnc1N)c1c(Cl)ccc(F)c1Cl [Crizotinib] (partner 1 µM)
Summary of the method: as §1

[4] = compound: N=C1NC(=O)/C(=C/c2ccc(O)cc2)S1 [Mirin] + COc1cc2c(Oc3ccc(NC(=O)C4(C(=O)Nc5ccc(F)cc5)CC4)cc3F)ccnc2cc1OCCCN1CCOCC1 [Foretinib] (partner 0.25 µM)
Summary of the method: as §1

With NCI-H1734 the relative viability ([1]; first compound 0.25 µM) was 0.67, the relative viability ([1]; first compound 0.7906 µM) was 0.651 and the relative viability ([1]; first compound 2.5 µM) was 0.684. It also gave a relative viability ([1]; first compound 7.906 µM) of 0.656, a relative viability ([1]; first compound 25 µM) of 0.584 and a relative viability ([2]; first compound 0.25 µM) of 0.636. It also gave a relative viability ([2]; first compound 0.7906 µM) of 0.574, a relative viability ([2]; first compound 2.5 µM) of 0.525 and a relative viability ([2]; first compound 7.906 µM) of 0.548. For the same cell line, the relative viability ([2]; first compound 25 µM) was 0.488, the relative viability ([3]; first compound 0.25 µM) was 0.626 and the relative viability ([3]; first compound 0.7906 µM) was 0.669. It also gave a relative viability ([3]; first compound 2.5 µM) of 0.607, a relative viability ([3]; first compound 7.906 µM) of 0.663 and a relative viability ([3]; first compound 25 µM) of 0.524. The relative viability ([4]; first compound 0.25 µM) was 0.847, the relative viability ([4]; first compound 0.7906 µM) was 0.739 and the relative viability ([4]; first compound 2.5 µM) was 0.788. For the same cell line, the relative viability ([4]; first compound 7.906 µM) was 0.849 and the relative viability ([4]; first compound 25 µM) was 0.702.
In the case of NCI-H1755, the relative viability ([1]; first compound 0.25 µM) is reported as 0.926, the relative viability ([1]; first compound 0.7906 µM) is reported as 0.947 and the relative viability ([1]; first compound 2.5 µM) is reported as 0.976. For the same cell line, the relative viability ([1]; first compound 7.906 µM) was 0.947, the relative viability ([1]; first compound 25 µM) was 0.876 and the relative viability ([2]; first compound 0.25 µM) was 0.686. The relative viability ([2]; first compound 0.7906 µM) was 0.75, the relative viability ([2]; first compound 2.5 µM) was 0.662 and the relative viability ([2]; first compound 7.906 µM) was 0.687. For the same cell line, the relative viability ([2]; first compound 25 µM) was 0.766, the relative viability ([3]; first compound 0.25 µM) was 0.829 and the relative viability ([3]; first compound 0.7906 µM) was 0.892. It also gave a relative viability ([3]; first compound 2.5 µM) of 0.851, a relative viability ([3]; first compound 7.906 µM) of 0.931 and a relative viability ([3]; first compound 25 µM) of 1.02. The relative viability ([4]; first compound 0.25 µM) was 1, the relative viability ([4]; first compound 0.7906 µM) was 0.918 and the relative viability ([4]; first compound 2.5 µM) was 0.963. It also gave a relative viability ([4]; first compound 7.906 µM) of 0.931 and a relative viability ([4]; first compound 25 µM) of 1.05.
Cell Line NCI-H1915 has a relative viability ([1]; first compound 0.25 µM) of 1.04, a relative viability ([1]; first compound 2.5 µM) of 1.09 and a relative viability ([1]; first compound 7.906 µM) of 0.948. It also gave a relative viability ([1]; first compound 25 µM) of 1.08, a relative viability ([2]; first compound 0.25 µM) of 0.586 and a relative viability ([2]; first compound 2.5 µM) of 0.625. For the same cell line, the relative viability ([2]; first compound 7.906 µM) was 0.579, the relative viability ([2]; first compound 25 µM) was 0.6 and the relative viability ([3]; first compound 0.25 µM) was 0.863. It also gave a relative viability ([3]; first compound 2.5 µM) of 0.87, a relative viability ([3]; first compound 7.906 µM) of 0.809 and a relative viability ([3]; first compound 25 µM) of 1.03. It also gave a relative viability ([4]; first compound 0.25 µM) of 1.06, a relative viability ([4]; first compound 2.5 µM) of 1.12 and a relative viability ([4]; first compound 7.906 µM) of 0.948. The relative viability ([4]; first compound 25 µM) was 0.975.
Cell Line NCI-H1944 has a relative viability ([1]; first compound 0.25 µM) of 0.834, a relative viability ([1]; first compound 2.5 µM) of 0.813 and a relative viability ([1]; first compound 7.906 µM) of 0.718. For the same cell line, the relative viability ([1]; first compound 25 µM) was 0.52, the relative viability ([2]; first compound 0.25 µM) was 0.445 and the relative viability ([2]; first compound 0.7906 µM) was 0.344. It also gave a relative viability ([2]; first compound 2.5 µM) of 0.391, a relative viability ([2]; first compound 7.906 µM) of 0.375 and a relative viability ([2]; first compound 25 µM) of 0.314. It also gave a relative viability ([3]; first compound 0.25 µM) of 0.971, a relative viability ([3]; first compound 2.5 µM) of 1.04 and a relative viability ([3]; first compound 7.906 µM) of 1.1. It also gave a relative viability ([3]; first compound 25 µM) of 0.957, a relative viability ([4]; first compound 0.25 µM) of 0.824 and a relative viability ([4]; first compound 0.7906 µM) of 0.95. The relative viability ([4]; first compound 2.5 µM) was 0.888, the relative viability ([4]; first compound 7.906 µM) was 0.814 and the relative viability ([4]; first compound 25 µM) was 0.557.
NCI-H1975 was tested, and the relative viability ([1]; first compound 0.25 µM) was 0.626, the relative viability ([1]; first compound 0.7906 µM) was 0.631 and the relative viability ([1]; first compound 2.5 µM) was 0.618. The relative viability ([1]; first compound 7.906 µM) was 0.714, the relative viability ([1]; first compound 25 µM) was 0.572 and the relative viability ([2]; first compound 0.25 µM) was 0.783. The relative viability ([2]; first compound 0.7906 µM) was 0.733, the relative viability ([2]; first compound 2.5 µM) was 0.692 and the relative viability ([2]; first compound 7.906 µM) was 0.82. For the same cell line, the relative viability ([2]; first compound 25 µM) was 0.626, the relative viability ([3]; first compound 0.25 µM) was 0.974 and the relative viability ([3]; first compound 0.7906 µM) was 1.02. It also gave a relative viability ([3]; first compound 2.5 µM) of 0.93, a relative viability ([3]; first compound 7.906 µM) of 0.954 and a relative viability ([3]; first compound 25 µM) of 0.943. It also gave a relative viability ([4]; first compound 0.25 µM) of 0.934, a relative viability ([4]; first compound 0.7906 µM) of 0.914 and a relative viability ([4]; first compound 2.5 µM) of 0.98. For the same cell line, the relative viability ([4]; first compound 7.906 µM) was 0.919 and the relative viability ([4]; first compound 25 µM) was 0.973.
NCI-H1993 was tested, and the relative viability ([1]; first compound 0.25 µM) was 0.663, the relative viability ([1]; first compound 0.7906 µM) was 0.779 and the relative viability ([1]; first compound 2.5 µM) was 0.681. For the same cell line, the relative viability ([1]; first compound 7.906 µM) was 0.65, the relative viability ([1]; first compound 25 µM) was 0.674 and the relative viability ([2]; first compound 0.25 µM) was 0.549. For the same cell line, the relative viability ([2]; first compound 2.5 µM) was 0.578, the relative viability ([2]; first compound 7.906 µM) was 0.496 and the relative viability ([2]; first compound 25 µM) was 0.539. It also gave a relative viability ([3]; first compound 0.25 µM) of 0.757, a relative viability ([3]; first compound 0.7906 µM) of 0.82 and a relative viability ([3]; first compound 2.5 µM) of 0.845. It also gave a relative viability ([3]; first compound 7.906 µM) of 0.926, a relative viability ([3]; first compound 25 µM) of 0.788 and a relative viability ([4]; first compound 0.25 µM) of 0.716. For the same cell line, the relative viability ([4]; first compound 2.5 µM) was 0.821, the relative viability ([4]; first compound 7.906 µM) was 0.76 and the relative viability ([4]; first compound 25 µM) was 0.824.
Cell Line NCI-H2009 has a relative viability ([1]; first compound 0.25 µM) of 1.1, a relative viability ([1]; first compound 0.7906 µM) of 1.27 and a relative viability ([1]; first compound 2.5 µM) of 1.19. For the same cell line, the relative viability ([1]; first compound 7.906 µM) was 1.12, the relative viability ([1]; first compound 25 µM) was 1.13 and the relative viability ([2]; first compound 0.25 µM) was 0.646. It also gave a relative viability ([2]; first compound 0.7906 µM) of 0.662, a relative viability ([2]; first compound 2.5 µM) of 0.706 and a relative viability ([2]; first compound 7.906 µM) of 0.413. For the same cell line, the relative viability ([2]; first compound 25 µM) was 0.522, the relative viability ([3]; first compound 0.25 µM) was 1.08 and the relative viability ([3]; first compound 0.7906 µM) was 1.11. For the same cell line, the relative viability ([3]; first compound 2.5 µM) was 1.01, the relative viability ([3]; first compound 7.906 µM) was 0.853 and the relative viability ([3]; first compound 25 µM) was 1.16. For the same cell line, the relative viability ([4]; first compound 0.25 µM) was 1.19, the relative viability ([4]; first compound 0.7906 µM) was 1.33 and the relative viability ([4]; first compound 2.5 µM) was 1.2. It also gave a relative viability ([4]; first compound 7.906 µM) of 1.19 and a relative viability ([4]; first compound 25 µM) of 1.17.
NCI-H2023 was tested, and the relative viability ([1]; first compound 0.25 µM) was 0.588, the relative viability ([1]; first compound 0.7906 µM) was 0.594 and the relative viability ([1]; first compound 2.5 µM) was 0.616. The relative viability ([1]; first compound 7.906 µM) was 0.616, the relative viability ([1]; first compound 25 µM) was 0.555 and the relative viability ([2]; first compound 0.25 µM) was 0.407. It also gave a relative viability ([2]; first compound 0.7906 µM) of 0.466, a relative viability ([2]; first compound 2.5 µM) of 0.401 and a relative viability ([2]; first compound 7.906 µM) of 0.356. For the same cell line, the relative viability ([2]; first compound 25 µM) was 0.285, the relative viability ([3]; first compound 0.25 µM) was 0.658 and the relative viability ([3]; first compound 0.7906 µM) was 0.665. The relative viability ([3]; first compound 2.5 µM) was 0.585, the relative viability ([3]; first compound 7.906 µM) was 0.692 and the relative viability ([3]; first compound 25 µM) was 0.567. It also gave a relative viability ([4]; first compound 0.25 µM) of 0.806, a relative viability ([4]; first compound 0.7906 µM) of 0.837 and a relative viability ([4]; first compound 2.5 µM) of 0.993. For the same cell line, the relative viability ([4]; first compound 7.906 µM) was 0.894 and the relative viability ([4]; first compound 25 µM) was 0.919.
NCI-H2085 gave a relative viability ([1]; first compound 0.25 µM) of 0.908, a relative viability ([1]; first compound 0.7906 µM) of 1.07 and a relative viability ([1]; first compound 2.5 µM) of 0.97. It also gave a relative viability ([1]; first compound 7.906 µM) of 0.843, a relative viability ([1]; first compound 25 µM) of 0.674 and a relative viability ([2]; first compound 0.25 µM) of 0.873. For the same cell line, the relative viability ([2]; first compound 0.7906 µM) was 0.674, the relative viability ([2]; first compound 2.5 µM) was 0.748 and the relative viability ([2]; first compound 7.906 µM) was 0.603. The relative viability ([2]; first compound 25 µM) was 0.584, the relative viability ([3]; first compound 0.25 µM) was 0.798 and the relative viability ([3]; first compound 0.7906 µM) was 0.853. The relative viability ([3]; first compound 2.5 µM) was 0.878, the relative viability ([3]; first compound 7.906 µM) was 0.704 and the relative viability ([3]; first compound 25 µM) was 0.923. The relative viability ([4]; first compound 0.25 µM) was 0.948, the relative viability ([4]; first compound 0.7906 µM) was 0.999 and the relative viability ([4]; first compound 2.5 µM) was 0.941. The relative viability ([4]; first compound 7.906 µM) was 1.1 and the relative viability ([4]; first compound 25 µM) was 1.
